Results reported in PubChem BioAssay (NCI).
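Where inhibition never reached the appropriate level, the endpoint shown equals the highest concentration tested. Otherwise, values were interpolated linearly from a five-concentration, 48-hour dose response in 96-well plates. The concentration for 50% growth inhibition is given as GI50. TGI denotes the concentration required for complete inhibition of growth.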

How the values were obtained:
Assay in all cases: growth of human tumour cells (NCI), 48 h
NCI/ADR-RES ovarian = system: NCI/ADR-RES ovarian
IGROV1 ovarian = system: IGROV1 ovarian
SK-MEL-28 melanoma = system: SK-MEL-28 melanoma
HCC-2998 colon = system: HCC-2998 colon
SN12C renal = system: SN12C renal
TK-10 renal = system: TK-10 renal
ACHN renal = system: ACHN renal
HOP-62 NSCLC = system: HOP-62 NSCLC
T-47D breast = system: T-47D breast
SF-295 CNS = system: SF-295 CNS
SK-MEL-2 melanoma = system: SK-MEL-2 melanoma
NCI-H460 lung = system: NCI-H460 lung
K-562 leukemia = system: K-562 leukemia
UACC-62 melanoma = system: UACC-62 melanoma
PC-3 prostate = system: PC-3 prostate
MALME-3M melanoma = system: MALME-3M melanoma
OVCAR-5 ovarian = system: OVCAR-5 ovarian
MDA-MB-435 = system: MDA-MB-435
SF-539 CNS = system: SF-539 CNS
MCF7 breast = system: MCF7 breast
OVCAR-3 ovarian = system: OVCAR-3 ovarian
DU-145 prostate = system: DU-145 prostate
HL-60(TB) leukemia = system: HL-60(TB) leukemia
NCI-H23 lung = system: NCI-H23 lung
HCT-15 colon = system: HCT-15 colon
OVCAR-8 ovarian = system: OVCAR-8 ovarian
OVCAR-4 ovarian = system: OVCAR-4 ovarian
A498 renal = system: A498 renal
HS 578T breast = system: HS 578T breast
786-0 renal = system: 786-0 renal
KM12 colon = system: KM12 colon
HOP-92 NSCLC = system: HOP-92 NSCLC
CCRF-CEM leukemia = system: CCRF-CEM leukemia
SNB-19 CNS = system: SNB-19 CNS
RPMI-8226 leukemia = system: RPMI-8226 leukemia
SK-MEL-5 melanoma = system: SK-MEL-5 melanoma
UACC-257 melanoma = system: UACC-257 melanoma
A549 NSCLC = system: A549 NSCLC
LOX IMVI melanoma = system: LOX IMVI melanoma
SK-OV-3 ovarian = system: SK-OV-3 ovarian
UO-31 renal = system: UO-31 renal
HT29 colon = system: HT29 colon
CAKI-1 renal = system: CAKI-1 renal
U251 CNS = system: U251 CNS
MOLT-4 leukemia = system: MOLT-4 leukemia
SW-620 colon = system: SW-620 colon
SF-268 CNS = system: SF-268 CNS
BT-549 breast = system: BT-549 breast
COLO 205 colon = system: COLO 205 colon
NCI-H226 lung = system: NCI-H226 lung
MDA-MB-231 breast = system: MDA-MB-231 breast
RXF 393 renal = system: RXF 393 renal
SNB-75 CNS = system: SNB-75 CNS
SR leukemia = system: SR leukemia
M14 melanoma = system: M14 melanoma
EKVX NSCLC = system: EKVX NSCLC
HCT-116 colon = system: HCT-116 colon

Q: What does the source list for `COc1ccc(-c2cnoc2-c2ccc(OC)cc2O)cc1`?
A: GI50 (NCI/ADR-RES ovarian): 1.75 µM; TGI (NCI/ADR-RES ovarian): 19.1 µM; GI50 (IGROV1 ovarian): 7.54 µM; TGI (IGROV1 ovarian): 92.1 µM; GI50 (SK-MEL-28 melanoma): 5.42 µM; TGI (SK-MEL-28 melanoma): 60.5 µM; GI50 (HCC-2998 colon): 5.27 µM; TGI (HCC-2998 colon): 29.8 µM; GI50 (SN12C renal): 5 µM; TGI (SN12C renal): 41.1 µM; GI50 (TK-10 renal): 11.8 µM; TGI (TK-10 renal): 47.5 µM; GI50 (ACHN renal): 9.17 µM; TGI (ACHN renal): > 100 µM; GI50 (HOP-62 NSCLC): 4.6 µM; TGI (HOP-62 NSCLC): 35.7 µM; GI50 (T-47D breast): 8.64 µM; TGI (T-47D breast): > 100 µM; GI50 (SF-295 CNS): 2.99 µM; TGI (SF-295 CNS): 14.8 µM; GI50 (SK-MEL-2 melanoma): 3.33 µM; TGI (SK-MEL-2 melanoma): 11.8 µM; GI50 (NCI-H460 lung): 3.24 µM; TGI (NCI-H460 lung): 12.4 µM; GI50 (K-562 leukemia): 0.534 µM; TGI (K-562 leukemia): > 100 µM; GI50 (UACC-62 melanoma): 2.61 µM; TGI (UACC-62 melanoma): 20.2 µM; GI50 (PC-3 prostate): 4.52 µM; TGI (PC-3 prostate): 54.3 µM; GI50 (MALME-3M melanoma): 14.1 µM; TGI (MALME-3M melanoma): 49.5 µM; GI50 (OVCAR-5 ovarian): 13.5 µM; TGI (OVCAR-5 ovarian): > 100 µM; GI50 (MDA-MB-435): 0.314 µM; TGI (MDA-MB-435): 1.6 µM; GI50 (SF-539 CNS): 3.66 µM; TGI (SF-539 CNS): 16.6 µM; GI50 (MCF7 breast): 2.85 µM; TGI (MCF7 breast): 85.2 µM; GI50 (OVCAR-3 ovarian): 2.32 µM; TGI (OVCAR-3 ovarian): 5.76 µM; GI50 (DU-145 prostate): 3.85 µM; TGI (DU-145 prostate): 15.8 µM; GI50 (HL-60(TB) leukemia): 2.93 µM; TGI (HL-60(TB) leukemia): 16.8 µM; GI50 (NCI-H23 lung): 4.31 µM; TGI (NCI-H23 lung): 50.3 µM; GI50 (HCT-15 colon): 2.56 µM; TGI (HCT-15 colon): > 100 µM; GI50 (OVCAR-8 ovarian): 4.49 µM; TGI (OVCAR-8 ovarian): 30.4 µM; GI50 (OVCAR-4 ovarian): 10.5 µM; TGI (OVCAR-4 ovarian): > 100 µM; GI50 (A498 renal): 1.78 µM; TGI (A498 renal): 8.49 µM; GI50 (HS 578T breast): 1.9 µM; TGI (HS 578T breast): 6.69 µM; GI50 (786-0 renal): 5.31 µM; TGI (786-0 renal): 37.5 µM; GI50 (KM12 colon): 2.66 µM; TGI (KM12 colon): 15 µM; GI50 (HOP-92 NSCLC): 2.42 µM; TGI (HOP-92 NSCLC): 27.4 µM; GI50 (CCRF-CEM leukemia): 3.09 µM; TGI (CCRF-CEM leukemia): > 100 µM; GI50 (SNB-19 CNS): 5.29 µM; TGI (SNB-19 CNS): > 100 µM; GI50 (RPMI-8226 leukemia): 4.98 µM; TGI (RPMI-8226 leukemia): 67.4 µM; GI50 (SK-MEL-5 melanoma): 3.52 µM; TGI (SK-MEL-5 melanoma): 14.2 µM; GI50 (UACC-257 melanoma): 6.9 µM; TGI (UACC-257 melanoma): 41.6 µM; GI50 (A549 NSCLC): 4.08 µM; TGI (A549 NSCLC): 69.3 µM; GI50 (LOX IMVI melanoma): 6.9 µM; TGI (LOX IMVI melanoma): 26.2 µM; GI50 (SK-OV-3 ovarian): 4.17 µM; TGI (SK-OV-3 ovarian): 24 µM; GI50 (UO-31 renal): 11.6 µM; TGI (UO-31 renal): 53.3 µM; GI50 (HT29 colon): 3.54 µM; TGI (HT29 colon): 15.3 µM; GI50 (CAKI-1 renal): 4.31 µM; TGI (CAKI-1 renal): > 100 µM; GI50 (U251 CNS): 3.58 µM; TGI (U251 CNS): 18.3 µM; GI50 (MOLT-4 leukemia): 3.36 µM; TGI (MOLT-4 leukemia): 22.9 µM; GI50 (SW-620 colon): 2.05 µM; TGI (SW-620 colon): > 100 µM; GI50 (SF-268 CNS): 6.32 µM; TGI (SF-268 CNS): 42.6 µM; GI50 (BT-549 breast): 9.73 µM; TGI (BT-549 breast): 35.3 µM; GI50 (COLO 205 colon): 9.5 µM; TGI (COLO 205 colon): 30.4 µM; GI50 (NCI-H226 lung): 12.8 µM; TGI (NCI-H226 lung): 55.6 µM; GI50 (MDA-MB-231 breast): 3.32 µM; TGI (MDA-MB-231 breast): 27.6 µM; GI50 (RXF 393 renal): 3.4 µM; TGI (RXF 393 renal): 11.1 µM; GI50 (SNB-75 CNS): 1.72 µM; TGI (SNB-75 CNS): 9.86 µM; GI50 (SR leukemia): 0.628 µM; TGI (SR leukemia): 13 µM; GI50 (M14 melanoma): 2.69 µM; TGI (M14 melanoma): 15 µM; GI50 (EKVX NSCLC): 15.5 µM; TGI (EKVX NSCLC): > 100 µM; GI50 (HCT-116 colon): 2.82 µM; TGI (HCT-116 colon): 16.5 µM
